# In patent US9408842B2, “Substituted pyrano and furanoquinolines, their preparation and use as medicaments” (LABORATORIOS DEL DR. ESTEVE S.A., priority 2012, dated 2016):
# pKi: −log10 of the molar value. Structures can show the parent of a compound that is named as a salt.
# Molecular target: T1, σ1-receptor (Cavia porcellus, UniProt Q60492)
# T1 construct: Guinea pig brains were homogenized in 10 vols; (w/v) of Tris-HCl 50 mM 0.32 M sucrose, pH 7.4; from tissue; host or cells: guinea pig brain membranes
# T1 sequence (Q60492 whole entry): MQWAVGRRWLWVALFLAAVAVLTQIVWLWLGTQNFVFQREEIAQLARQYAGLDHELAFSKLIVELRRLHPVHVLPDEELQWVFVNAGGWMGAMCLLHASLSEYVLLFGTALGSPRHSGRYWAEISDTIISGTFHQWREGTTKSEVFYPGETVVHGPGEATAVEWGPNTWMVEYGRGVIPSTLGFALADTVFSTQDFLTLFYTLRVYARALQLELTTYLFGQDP
# Experiment: binding assay for the σ1-receptor, [3H]-(+)-pentazocine, brain membranes
# Conditions: guinea pig brain membranes; radioligand [3H]-(+)-pentazocine 5.0 nM; 150 min at 37° C.; nonspecific binding with 1 μM haloperidol
# Method: Guinea pig brains were homogenized in 10 vols. (w/v) of Tris-HCl 50 mM 0.32 M sucrose, pH 7.4, with a Kinematica Polytron PT 3000 at 15000 r.p.m. for 30 s. The homogenate was centrifuged at 1000 g for 10 min at 4° C. and the supernatants collected and centrifuged again at 48000 g for 15 min at 4° C. The pellet was resuspended in 10 volumes of Tris-HCl buffer (50 mM, pH 7.4), incubated at 37° C. for 30 min, and centrifuged at 48000 g for 20 min at 4° C. Following this, the pellet was re-suspended in fresh Tris-HCl buffer (50 mM, pH 7.4) and stored on ice until use.
# The radioligand used was [^3H]-(+)-pentazocine at 5.0 nM and the final volume was 200 μl. The incubation was initiated with the addition of 100 μl of membrane at a final tissue concentration of approximately 5 mg tissue net weight/mL and the incubation time was 150 m. at 37° C. After incubation, the membranes were collected onto pretreated glass fiber filterplate (MultiScreen-FC, Millipore), with polyethylenimine 0.1%. The filters were washed two times with 200 μl of washing buffer (50 mM Tris Cl, pH=7.4) and then 25 μl of Ecoscint H liquid scintillation cocktail were added. […] Nonspecific binding was determined with 1 μM haloperidol.
row,pKi,Structure (SMILES)
1,6.50,"CCN1CCC([C@H]2Nc3ccc(OCCC(C)C)cc3[C@H]3OCCC[C@H]32)CC1 (racemic) [Example 110, (4aSR*,5RS*,10bSR*)-5-(1-ethylpiperidin-4-yl)-9-(isopentyloxy)-3,4,4a,5,6,10b-hexahydro-2H-pyrano[3,2-c]quinoline hydrochloride]"
2,6.91,"CC(C)CCOc1ccc2c(c1)[C@H]1OCCC[C@H]1[C@@H](C1CCCC1)N2 (racemic) [Example 105, (4aSR*,5RS*,10bSR*)-5-cyclopentyl-9-(isopentyloxy)-3,4,4a,5,6,10b-hexahydro-2H-pyrano[3,2-c]quinoline hydrochloride]"
3,6.52,"Clc1ccc(Oc2ccc3c(c2)[C@H]2OCC[C@H]2[C@@H](C2CCCCC2)N3)cc1 (racemic) [Example 87, (3aSR*,4RS*,9bSR*)-8-(4-chlorophenoxy)-4-cyclohexyl-2,3,3a,4,5,9b-hexahydrofuro[3,2-c]quinoline hydrochloride]"
4,6.61,"CCCCCc1ccc2c(c1)[C@H]1OCC[C@H]1[C@@H](C1CCCCC1)N2 (racemic) [Example 84, (3aSR*,4RS*,9bSR*)-4-cyclohexyl-8-pentyl-2,3,3a,4,5,9b-hexahydrofuro[3,2-c]quinoline hydrochloride]"
5,6.73,"Clc1cccc(Oc2ccc3c(c2)[C@H]2OCCC[C@H]2[C@@H](C2CCCCC2)N3)c1 (racemic) [Example 1, (4aSR*,5RS*,10bSR*)-9-(3-chlorophenoxy)-5-cyclohexyl-3,4,4a,5,6,10b-hexahydro-2H-pyrano[3,2-c]quinoline hydrochloride]"
6,6.55,"COc1ccc2c(c1)[C@H]1OCCC[C@H]1[C@@H](C1CCN(CCc3ccccc3)CC1)N2 (racemic) [Example 108, (4aSR*,5RS*,10bSR*)-9-methoxy-5-(1-phenethylpiperidin-4-yl)-3,4,4a,5,6,10b-hexahydro-2H-pyrano[3,2-c]quinoline hydrochloride]"
7,7.11,"Clc1ccc(Oc2ccc3c(c2)[C@H]2OCC[C@H]2[C@@H](C2CCCCC2)N3)cc1 (racemic) [Example 86, (3aSR*,4RS*,9bSR*)-8-(4-chlorophenoxy)-4-cyclohexyl-2,3,3a,4,5,9b-hexahydrofuro[3,2-c]quinoline]"
8,6.47,"c1cc2c(cc1N1CCOCC1)[C@H]1OCC[C@H]1[C@@H](C1CCCCC1)N2 (racemic) [Example 103, (3aSR*,4RS*,9bSR*)-4-cyclohexyl-8-morpholino-2,3,3a,4,5,9b-hexahydrofuro[3,2-c]quinoline hydrochloride]"
9,7.52,"CC(C)CCOc1ccc2c(c1)[C@H]1OCCC[C@H]1[C@@H](C1CCOCC1)N2 [Example 114, (4aS,5R,10bS)-9-(isopentyloxy)-5-(tetrahydro-2H-pyran-4-yl)-3,4,4a,5,6,10b-hexahydro-2H-pyrano[3,2-c]quinoline]"
10,7.82,"CC(C)CCOc1ccc2c(c1)[C@H]1OCCC[C@H]1[C@@H](C1CCN(Cc3ccccc3)CC1)N2 (racemic) [Example 6, (4aSR*,5RS*,10bSR*)-5-(1-benzylpiperidin-4-yl)-9-(isopentyloxy)-3,4,4a,5,6,10b-hexahydro-2H-pyrano[3,2-c]quinoline hydrochloride]"
11,6.46,"c1ccc(Oc2ccc3c(c2)[C@H]2OCCC[C@H]2[C@@H](C2CCSCC2)N3)cc1 (racemic) [Example 71, (4aSR*,5RS*,10bSR*)-9-phenoxy-5-(tetrahydro-2H-thiopyran-4-yl)-3,4,4a,5,6,10b-hexahydro-2H-pyrano[3,2-c]quinoline hydrochloride]"
12,6.88,"c1cc2c(cc1OCCN1CCOCC1)[C@H]1OCC[C@H]1[C@@H](C1CCCCC1)N2 (racemic) [Example 41, (3aSR*,4RS*,9bSR*)-4-cyclohexyl-8-(2-morpholinoethoxy)-2,3,3a,4,5,9b-hexahydrofuro[3,2-c]quinoline hydrochloride]"
13,7.08,"CC(C)CCOc1ccc2c(c1)[C@H]1OCCC[C@H]1[C@@H](C1CCOCC1)N2 (racemic) [Example 101, (4aSR*,5RS*,10bSR*)-9-(isopentyloxy)-5-(tetrahydro-2H-pyran-4-yl)-3,4,4a,5,6,10b-hexahydro-2H-pyrano[3,2-c]quinoline hydrochloride]"
14,6.51,"c1cc2c(cc1OCCN1CCOCC1)[C@H]1OCCC[C@H]1[C@@H](C1CCCCC1)N2 (racemic) [Example 67, (4aSR*,5RS*,10bSR*)-5-cyclohexyl-9-(2-morpholinoethoxy)-3,4,4a,5,6,10b-hexahydro-2H-pyrano[3,2-c]quinoline]"
15,6.87,"NCCCOc1ccc2c(c1)[C@H]1OCCC[C@H]1[C@@H](C1CCCCC1)N2 (racemic) [Example 112, 3-((4aSR*,5RS*,10bSR*)-5-cyclohexyl-3,4,4a,5,6,10b-hexahydro-2H-pyrano[3,2-c]quinolin-9-yloxy)propan-1-amine hydrochloride]"
16,6.71,"Clc1ccc(Oc2ccc3c(c2)[C@H]2OCCC[C@H]2[C@@H](C2CCCCC2)N3)cc1 (racemic) [Example 55, (4aSR*,5RS*,10bSR*)-9-(4-chlorophenoxy)-5-cyclohexyl-3,4,4a,5,6,10b-hexahydro-2H-pyrano[3,2-c]quinoline hydrochloride]"
17,6.88,"CCCCCc1ccc2c(c1)[C@H]1OCCC[C@H]1[C@@H](C1CCCCC1)N2 (racemic) [Example 59, (4aSR*,5RS*,10bSR*)-5-cyclohexyl-9-pentyl-3,4,4a,5,6,10b-hexahydro-2H-pyrano[3,2-c]quinoline]"

row,Structure (SMILES),pKi
1,"CCCCOc1ccc2c(c1)[C@H]1OCCC[C@H]1[C@@H](C1CCCCC1)N2 (racemic) [Example 16, (4aSR*,5RS*,10bSR*)-9-butoxy-5-cyclohexyl-3,4,4a,5,6,10b-hexahydro-2H-pyrano[3,2-c]quinoline hydrochloride]",6.92
